Here are results for 23 compounds from US20110065760A1, “COMPOUNDS FOR THE INHIBITION OF ROTAMASES AND USE THEREOF” (Jerini AG, priority 2002, published 2011).

Each structure is given as a SMILES string. pIC50: −log10 of the molar value. Read-outs that look alike come from different tables or passages of the source.

Data set [1] is described as follows: WST-1 cytotoxicity assay, MCF-7. The format is cell-based. As to conditions: human, MCF-7 cells (breast adenocarcinoma); WST-1, 48 h incubation; read-out: EC50 class, cytotoxic effect, CL-5 (MCF-7). The protocol:
(§1) For this cytotoxic evaluation of the compounds the commercial available WST-1 assay (Roche) was used according to the manufacturer's instructions. The assay is based on the cleavage of the tetrazolium salt WST-1 by mitochondrial dehydrogenases found in viable cells. In general compounds were added to cells cultured in 96-well plates at 37° C. After 48 h of incubation 10 μl of WST-1 solution was added. The formazan dye was analyzed with an ELISA plate reader at (450 vs. 620) nm. CL-1: human acute myeloid leukemia, HL-60 CL-2: human cervix carcinoma, HeLa CL-3: human prostate carcinoma, PC-3 CL-4: human colon adenocarcinoma, Caco-2 CL-5: human breast adenocarcinoma, MCF-7

Data set [2] is described as follows: WST-1 cytotoxicity assay, HeLa. It counts as cell-based. As to conditions: human, HeLa cells (cervix carcinoma); WST-1, 48 h incubation; read-out: EC50 class, cytotoxic effect, CL-2 (HeLa). The protocol:
as §1
In general terms: Formazan colour is commonly taken as a measure of viable cells.

A short description of data set [3]: WST-1 cytotoxicity assay, PC-3. The format is cell-based. As to conditions: human, PC-3 cells (prostate carcinoma); WST-1, 48 h incubation; read-out: EC50 class, cytotoxic effect, CL-3 (PC-3). The protocol: as §1
Data set [4] in a line: WST-1 cytotoxicity assay, HL-60. The format is cell-based. As to conditions: human, HL-60 cells (acute myeloid leukemia); WST-1, 48 h incubation; read-out: EC50 class, cytotoxic effect, CL-1 (HL-60). The method, then: as §1
Data set [5] addresses LpCyp18 (Legionella pneumophila, UniProt Q5ZRZ4). Nature of the data set: biochemical. As to conditions: IC50 class, Target T-4 (LpCyp18).
Data set [6] deals with hCyp18 (Homo sapiens, UniProt P62937). Nature of the data set: protease-coupled PPIase assay, hCyp18. The format is biochemical. To be noted: 10 nM hCyp18, substrate Suc-Ala-Phe-Pro-Phe-pNA, chymotrypsin, pH 7.8, 6° C.; read-out: IC50 class, Target T-3 (hCyp18).
Chain of hCyp18 (P62937 whole entry): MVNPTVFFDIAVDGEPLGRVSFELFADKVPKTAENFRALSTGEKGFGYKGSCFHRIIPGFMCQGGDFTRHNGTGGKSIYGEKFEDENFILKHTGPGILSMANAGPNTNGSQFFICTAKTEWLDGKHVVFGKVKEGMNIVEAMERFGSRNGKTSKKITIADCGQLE
The target of data set [7] is cathepsin B (Homo sapiens, UniProt P07858). The data set can be described thus: cathepsin B assay. It counts as biochemical. To be noted: 0.2 μg/ml cathepsin B, 2 mM Z-Arg-Arg-pNA, pH 5.8, 30° C., 30 min incubation; read-out: IC50 class, Target T-8 (Cathepsin). The method, then: (§2) In order to investigate the impact of some of the inventive compounds on the activity of key proteases the following assay was performed: Protease activities were measured spectrophotometrically at 30° C. according to Schomburg and Salzmann (Schomburg, B.; Salzmann M. GBF: Enzyme Handbook. Springer Verlag, Berlin Heidelberg, 1991) and Bergmeyer et al. (Bergmeyer, H. U.; Bergmeyer, J.; Graβl, M. Methods of Enzymatic Analysis, Vol. V Enzymes 3: Peptides, Proteinases and Their Inhibitors. pp 55-371, VCH, Weinheim, 1988). The release of 4-nitroaniline was determined at 390 nm with a Spectramax Plus UV/Vis spectrophotometer (Molecular Devices). The cathepsin B assay was performed in a reaction mixture containing 0.2 μg/ml cathepsin B, 2 mM Z-Arg-Arg-pNA in 88 mM KH2PO4, 12 mM Na2HPO4, 1.33 mM EDTA, 0.03% Brij 35 (pH 5.8). The trypsin assay was carried out in a reaction mixture containing 0.1 μg/ml trypsin and 120 μM Ac-Ala-Ala-Ser(PO3H2)-Pro-Arg-pNA in 35 mM HEPES (pH 7.8) and the papain assay in a mixture consisting of 16 μg/ml papain and 2 mM Bz-DL-Arg-pNA in 10 mM Na2HPO4, 2 mM L-Cys, 5 mM EDTA (pH 6.5). In general, reactions were started by addition of peptide substrate after a 30 min incubation of 1-100 μM effector with given concentrations of enzyme.

Data set [8] deals with T1, Papain (Carica papaya, UniProt P00784).
T1 sequence (P00784 134-345): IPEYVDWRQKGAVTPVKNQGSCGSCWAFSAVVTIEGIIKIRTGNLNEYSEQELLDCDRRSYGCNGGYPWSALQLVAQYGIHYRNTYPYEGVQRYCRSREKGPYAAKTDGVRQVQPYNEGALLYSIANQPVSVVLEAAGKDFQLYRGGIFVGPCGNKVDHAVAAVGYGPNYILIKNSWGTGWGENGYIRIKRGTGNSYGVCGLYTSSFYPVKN
The data set can be described thus: papain assay. It counts as biochemical. To be noted: 16 μg/ml papain, 2 mM Bz-DL-Arg-pNA, pH 6.5, 30° C., 30 min incubation; read-out: IC50 class, Target T-6 (Papain). The protocol: as §2

Data set [9] addresses hFKBP12 (Homo sapiens, UniProt P62942). Nature of the data set: protease-coupled PPIase assay, hFKBP12. It counts as biochemical. As to conditions: 20 nM hFKBP12, substrate Suc-Ala-Phe-Pro-Phe-pNA, chymotrypsin, pH 7.8, 6° C.; read-out: IC50 class, Target T-2 (hFKBP12).
Data set [10] concerns the target EcParvulin (Escherichia coli, UniProt P0A9L5). Nature of the data set: protease-coupled PPIase assay, EcParvulin. It counts as biochemical.
Data set [11] addresses hPin1 (Homo sapiens, UniProt Q13526). Nature of the data set: protease-coupled PPIase assay, hPin1. As to conditions: 6 nM hPin1, substrate Ac-Ala-Ala-Ser(PO3H2)-Pro-Arg-pNA, trypsin, pH 7.8, 6° C.; read-out: IC50 class, Target T-1 (hPin1). The format is biochemical.
The subject of data set [12] is tumor cell lines (HL-60, HeLa, PC-3, Caco-2, MCF-7). Nature of the data set: WST-1 cytotoxicity assay, tumor cell lines (panel statement). It counts as cell-based, human. To be noted: WST-1, 48 h; table 4. The protocol: as §1
Where [13] appears, read: 20 nM EcParvulin, substrate Suc-Ala-Phe-Pro-Phe-pNA, chymotrypsin, pH 7.8, 6° C., read-out: IC50 class, Target T-5 (EcParv).

Chain of hFKBP12 (P62942 whole entry): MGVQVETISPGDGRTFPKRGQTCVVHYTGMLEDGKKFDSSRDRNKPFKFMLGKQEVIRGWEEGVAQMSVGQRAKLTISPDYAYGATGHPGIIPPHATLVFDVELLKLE
Chain of hPin1 (Q13526 whole entry): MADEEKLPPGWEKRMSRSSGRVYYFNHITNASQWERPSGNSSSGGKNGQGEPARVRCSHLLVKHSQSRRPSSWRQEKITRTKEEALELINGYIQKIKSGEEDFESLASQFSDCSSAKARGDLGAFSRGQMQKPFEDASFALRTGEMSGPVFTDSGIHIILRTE
Chain of EcParvulin (P0A9L5 whole entry): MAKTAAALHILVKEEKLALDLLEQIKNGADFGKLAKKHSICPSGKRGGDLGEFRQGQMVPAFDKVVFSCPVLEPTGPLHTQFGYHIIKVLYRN
Chain of LpCyp18 (Q5ZRZ4 1-164): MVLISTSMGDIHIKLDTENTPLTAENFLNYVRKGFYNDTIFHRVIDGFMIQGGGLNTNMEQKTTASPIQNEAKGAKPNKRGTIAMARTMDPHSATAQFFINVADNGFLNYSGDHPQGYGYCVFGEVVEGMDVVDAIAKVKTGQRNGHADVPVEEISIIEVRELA

On to `Oc1c(Cl)cc(Cl)cc1NCc1ccccc1Sc1ccc(Cl)cc1` [Compound 329], for which the EC50 at 48 h in [1], in data set [2], in data set [3] and in data set [4] was 10 to 50 µM throughout.
As for `O=C(Nc1cc(Cl)c(O)c(NCc2ccccc2Sc2ccc(Cl)cc2)c1)N1CCOCC1` [Compound 654], the EC50 (as a rule, the concentration that produces a half-maximal response) at 48 h in data set [1] is < 10 µM; in [2], 10 to 50 µM.
For `Cc1c(Cl)cc(NC(=O)CC(C)CC(C)(C)C)c(O)c1Cl` (stereo not drawn) [Compound 599], the pIC50 (usually the negative decadic logarithm of the IC50, by convention in mol/L) in data set [5] is 4.00 to 4.30; in data set [6] it was < 4.00; in data set [7], 4.00 to 4.30; in [8], < 4.00; in [9] it was < 4.00; in data set [10], 4.30 to 5.00. Further, the pIC50 in data set [11] was 5.00 to 6.00.
Take `CC(C)(C)CC(C)(C)NC(=O)Nc1cccc(Cl)c1O` [Compound 54]: the EC50 at 48 h in data set [1] was < 10 µM; in data set [4], 10 to 50 µM.
On to `O=C(Nc1cc(Cl)cc(Cl)c1O)c1ccc(-c2ccccc2)cc1` [Compound 645], for which the EC50 at 48 h in data set [1], in [2], in [3] and in data set [4] was < 10 µM in each case. Also, the pIC50 in [8] was < 4.00. Also, the “cytotoxic effect on the tumor cell lines tested” value (shortened to “cytotoxic effect”) in [12] is “particular relevance”.
Turning to `CC(C)(C)c1ccc(Oc2cccc(CNc3cc(Cl)cc(Cl)c3O)c2)cc1` [Compound 483], the pIC50 in data set [5] was < 4.00; in data set [6], 4.30 to 5.00; in [9] it was < 4.00; in data set [10] (setting [13]), 4.00 to 4.30; in [11] it was 5.00 to 6.00. The EC50 at 48 h in data set [2] and in [3] was 10 to 50 µM throughout.
As to `O=C(Nc1ccc(Cl)cc1)Nc1cc(Cl)c(O)c(NCc2ccccc2Sc2ccc(Cl)cc2)c1` [Compound 633], the “cytotoxic effect” value in data set [12] is reported as “particular relevance”. The EC50 at 48 h in [3] and in data set [4] was < 10 µM in each case.
For the compound `Cc1c(Cl)cc(NCc2cccc(Oc3ccccc3)c2)c(O)c1Cl` [Compound 497], the pIC50 in data set [7] was 4.30 to 5.00; in data set [8], < 4.00.
With `Cc1c(Cl)cc(NC(=S)NCc2ccccc2)c(O)c1Cl` [Compound 254], the EC50 at 48 h in [1], in data set [2], in data set [3] and in data set [4] was 10 to 50 µM in each case. In addition, the pIC50 in data set [11] was > 6.00.
With `O=C(Nc1cc(Cl)nc(Cl)c1)Nc1cc(Cl)c(O)c(NCc2ccccc2Sc2ccc(Cl)cc2)c1` [Compound 652], the “cytotoxic effect” value in data set [12] is given as “particular relevance”. Further, the EC50 at 48 h in [3] and in data set [4] was < 10 µM each time.
On to `CC(C)(C)CC(C)(C)NC(=O)Nc1ccc(F)c(F)c1O` [Compound 150], for which the concentration giving a half-maximal response (EC50) at 48 h in data set [1] is < 10 µM; in data set [4] it was 10 to 50 µM.
Regarding `Cc1c(Cl)cc(NCc2ccco2)c(O)c1Cl` [Compound 646], the pIC50 in data set [7] and in data set [8] was < 4.00 each time.
With `Oc1c(Cl)cc(Cl)cc1NC(=S)Nc1ccccc1C(F)(F)F` [Compound 221], the EC50 at 48 h in [1] and in [4] was 10 to 50 µM in each case.
With `Oc1ccccc1NCc1ccccc1Sc1ccc(Cl)cc1` [Compound 630], the EC50 at 48 h in data set [2] was < 10 µM; in [3], < 10 µM; in [4] it was 10 to 50 µM.
On to `COc1ccc(Oc2cccc(CNc3cc(Cl)cc(Cl)c3O)c2)cc1` [Compound 493], for which the EC50 at 48 h in [2] is < 10 µM; in data set [3], < 10 µM; in data set [4] it was 10 to 50 µM.
Consider `Oc1c(Cl)cc(-c2nc3ccccc3s2)cc1NC(=S)NC1CCCC1` [Compound 653], for which the EC50 at 48 h in data set [1] is 10 to 50 µM; in [4], < 10 µM.
As to `Oc1ccc(NCc2ccccc2Sc2ccc(Cl)cc2)c(O)c1` [Compound 1044], the pIC50 in [5] is 5.00 to 6.00; in data set [6], 4.30 to 5.00; in [9] it was 4.30 to 5.00; in data set [10] (setting [13]), 4.30 to 5.00; in [11], > 6.00. In addition, the “cytotoxic effect” value in data set [12] is recorded as “particular relevance”. Also, the EC50 at 48 h in data set [2], in data set [3] and in data set [4] was 10 to 50 µM throughout.
Consider `CC(C)(C)CC(C)(C)NC(=O)Nc1cc(Cl)ccc1O` [Compound 6], for which the EC50 at 48 h in [1] is < 10 µM; in data set [4], 10 to 50 µM.
Turning to `Oc1c(NCc2ccccc2Sc2ccccc2Cl)ccc(F)c1F` [Compound 402], the EC50 at 48 h in [2], in data set [3] and in data set [4] was 10 to 50 µM in each case.
Consider `Oc1c(F)cccc1NCc1ccccc1Sc1ccc(Cl)cc1` [Compound 357], for which, in [12], the “cytotoxic effect” value was “particular relevance”. The EC50 at 48 h in data set [2], in data set [3] and in data set [4] was < 10 µM in each case.
For the compound `CC(O)c1cc(Cl)cc(NCc2ccccc2Sc2ccc(Cl)cc2)c1O` (stereo not drawn) [Compound 413], the EC50 at 48 h was < 10 µM in data set [2], 10 to 50 µM in data set [3] and 10 to 50 µM in data set [4].
In the case of `CC(C)(C)NC(=S)Nc1cc(-c2nc3ccccc3s2)cc(Cl)c1O` [Compound 640], the EC50 at 48 h in [1] and in data set [4] was 10 to 50 µM throughout. Besides, in [11], the pIC50 was 5.00 to 6.00.
`Cc1c(Cl)cc(NCc2ccccc2C(F)(F)F)c(O)c1Cl` [Compound 649]: the pIC50 in [7] was 4.00 to 4.30; in data set [8], < 4.00.
